Results: PubChem BioAssay AID328 (DTP/NCI, 2004)
Several values for one entry are separate records, joined by “and”; a condition that tells them apart may be missing. Equal values may be shown once. Inconclusive results and toxic doses are left out. How the source made its calls: active means survival T/C of 150% or more; inactive means T/C below 125% in these data.

Test system: BDF1 mice, P388 leukemia ip, median survival T/C
Assay: NCI In Vivo Anticancer Drug Screen. Data for tumor model P388 Leukemia (intraperitoneal) in B6D2F1 (BDF1) mice
Conditions: endpoint: median survival time, higher = longer survival
How it was run: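 T/C = treated-group survival ÷ vehicle-control survival; tumour transplanted into mice before dosing.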

[1] = dose: 50.0 mg/kg/injection, schedule: Q01DX009 (ip), vehicle: saline with Tween-80
[2] = dose: 50.0 mg/kg/injection, schedule: Q04DX003 (ip), vehicle: saline with Tween-80
[3] = dose: 100.0 mg/kg/injection, schedule: Q01DX009 (ip), vehicle: saline with Tween-80
[4] = dose: 100.0 mg/kg/injection, schedule: Q04DX003 (ip), vehicle: saline with Tween-80
[5] = dose: 200.0 mg/kg/injection, schedule: Q01DX009 (ip), vehicle: saline with Tween-80
[6] = dose: 100.0 mg/kg/injection, schedule: Q04DX003 (ip), vehicle: Klucel (hydroxypropylcellulose) (HPC)
[7] = dose: 200.0 mg/kg/injection, schedule: Q04DX003 (ip), vehicle: Klucel (hydroxypropylcellulose) (HPC)
[8] = dose: 400.0 mg/kg/injection, schedule: Q04DX003 (ip), vehicle: Klucel (hydroxypropylcellulose) (HPC)
[9] = dose: 200.0 mg/kg/injection, schedule: Q04DX003 (ip), vehicle: saline with Tween-80
[10] = dose: 400.0 mg/kg/injection, schedule: Q04DX003 (ip), vehicle: saline with Tween-80
[11] = dose: 100.0 mg/kg/injection, schedule: Q04DX003 (ip), vehicle: saline
[12] = dose: 200.0 mg/kg/injection, schedule: Q04DX003 (ip), vehicle: saline
[13] = dose: 100.0 mg/kg/injection, schedule: Q01DX009 (ip), vehicle: Klucel (hydroxypropylcellulose) (HPC)
[14] = dose: 200.0 mg/kg/injection, schedule: Q01DX009 (ip), vehicle: Klucel (hydroxypropylcellulose) (HPC)
[15] = dose: 400.0 mg/kg/injection, schedule: Q01DX009 (ip), vehicle: Klucel (hydroxypropylcellulose) (HPC)

Measured: T/C

O=C(CBr)c1ccc(/C=C/c2ccc(Cl)cc2)cc1
inactive: [1] 95 % of control | [2] 109 % of control | [3] 120 % of control | [4] 109 % of control

O=c1nc(Oc2ccccc2)nc2c3ccccc3ccn12
inactive: dose: 12.5 mg/kg/injection, schedule: Q01DX009 (ip), vehicle: saline with Tween-80 118 % of control | dose: 25.0 mg/kg/injection, schedule: Q01DX009 (ip), vehicle: saline with Tween-80 102 % of control | [1] 112 % of control | [3] 114 % of control and 119 % of control | [5] 89 % of control

CCOC(=O)C[Si](C)(C)C
inactive: dose: 25.0 mg/kg/injection, schedule: Q04DX003 (ip), vehicle: Klucel (hydroxypropylcellulose) (HPC) 99 % of control | dose: 50.0 mg/kg/injection, schedule: Q04DX003 (ip), vehicle: Klucel (hydroxypropylcellulose) (HPC) 99 % of control | [6] 97 % of control | [7] 101 % of control | [8] 109 % of control

CC(=O)OC(CC(O)(C(F)(F)F)C(F)(F)F)C(C)(C)C (stereo unspecified)
inactive: dose: 12.5 mg/kg/injection, schedule: Q04DX003 (ip), vehicle: saline with Tween-80 90 % of control | dose: 25.0 mg/kg/injection, schedule: Q04DX003 (ip), vehicle: saline with Tween-80 90 % of control | [2] 90 % of control

C=CCC(CC)C(=O)Cl (stereo unspecified)
inactive: [3] 109 % of control | [4] 111 % of control | [5] 100 % of control | [9] 110 % of control | dose: 400.0 mg/kg/injection, schedule: Q01DX009 (ip), vehicle: saline with Tween-80 100 % of control | [10] 105 % of control and 110 % of control

CC1CNC(=O)O1 (stereo unspecified)
inactive: [11] 115 % of control | [12] 110 % of control | dose: 400.0 mg/kg/injection, schedule: Q04DX003 (ip), vehicle: saline 95 % of control

Cc1ccc(S(=O)(=O)OCC2C3CCC2C3)cc1 (stereo unspecified)
inactive: [1] 101 % of control | [3] 107 % of control | [5] 107 % of control

O=C1/C(=C\c2ccc(Cl)cc2Cl)SC(=S)N1Cc1ccco1
inactive: [1] 97 % of control | [3] 91 % of control | [5] 88 % of control

O=C1CSC(c2ccccc2)N1 (stereo unspecified)
inactive: [13] 103 % of control | [6] 100 % of control | [14] 103 % of control | [15] 96 % of control | [8] 96 % of control

Clc1ncnc2c1ncn2C1CCCO1 (stereo unspecified)
inactive: [11] 104 % of control | [12] 104 % of control

O=C(Nc1ccc(F)cc1F)Oc1cccc2cccnc12
inactive: dose: 50.0 mg/kg/injection, schedule: Q01DX009 (ip), vehicle: Klucel (hydroxypropylcellulose) (HPC) 104 % of control | [13] 106 % of control | [14] 113 % of control | [15] 104 % of control

CCCCc1c2c(nn1C(=O)C=C(C)C)C(=O)C=C(Nc1ccccc1)C2=O
inactive: [4] 99 % of control | [9] 95 % of control | [10] 103 % of control

N#Cc1cccc(CC(O)(c2ccccc2)c2cccc3ccccc23)c1 (stereo unspecified)
inactive: [1] 103 % of control | [3] 97 % of control | [5] 99 % of control

O=C(NC1CCCCC1)OCC#CC#CCOC(=O)NC1CCCCC1
inactive: [6] 95 % of control | [7] 100 % of control
